In DBAASP:
Converted amounts (≈) assume the structure as drawn. “And” between values parts separate entries of the source, which are not always exact repeats. Identical values can stand only once. Blank lines part the entries; values can stand above or below the compound they belong to.

Key:
Assay in all cases: ≥ marks a high value that may be exact or a test limit, other limits are often not marked, values filed in µg/mL are converted to µM
[1] = system: Bacillus subtilis KCCM 11495
[2] = system: Escherichia coli KCCM 11569
[3] = system: Pseudomonas aeruginosa H1001
[4] = system: Escherichia coli
[5] = system: Escherichia coli ATCC 25922
[6] = system: Salmonella enterica subsp. enterica serovar Typhimurium ATCC 14028
[7] = system: Cryptococcus neoformans ATCC 90113
[8] = system: Salmonella enterica serovar Typhimurium
[9] = system: Candida albicans
[10] = system: Cryptococcus neoformans ATCC 52817
[11] = system: Staphylococcus epidermidis ATCC 12228
[12] = system: Salmonella enterica subsp. enterica serovar Enteritidis
[13] = system: Staphylococcus aureus ATCC 29213
[14] = system: Candida tropicalis
[15] = system: Pseudomonas aeruginosa
[16] = system: Klebsiella pneumoniae ATCC 13883
[17] = system: Klebsiella pneumoniae
[18] = system: Streptococcus equinus
[19] = system: Candida parapsilosis
[20] = system: Staphylococcus aureus ATCC 25923
[21] = system: Cryptococcus neoformans
[22] = system: Serratia marcescens ATCC 8100
[23] = system: Pseudomonas aeruginosa ATCC 27853
[24] = system: Bacillus megaterium Bm11
[25] = system: Pseudomonas aeruginosa ATCC 10145
[26] = system: Escherichia coli ML-35
[27] = system: Candida albicans ATCC 36232
[28] = system: Staphylococcus aureus KCTC 3881
[29] = system: Staphylococcus aureus AS1.72
[30] = system: Shigella dysenteriae ATCC 9752
[31] = system: Escherichia coli AS1.349
[32] = system: Bacillus subtilis ATCC 6633
[33] = system: Escherichia coli KCTC 2433
[34] = system: Micrococcus luteus ATCC 4698
[35] = system: Lactococcus lactis
[36] = system: Pseudomonas aeruginosa ATCC 9027
[37] = system: Klebsiella pneumoniae ATCC 10031
[38] = system: Bacillus cereus
[39] = system: Proteus mirabilis ATCC 25933
[40] = system: Burkholderia cepacia ATCC 25416
[41] = system: Pseudomonas aeruginosa H374
[42] = system: Pseudomonas aeruginosa K799
[43] = system: Pseudomonas aeruginosa H744
[44] = system: Escherichia coli UB1005
[45] = system: Pseudomonas aeruginosa H547
[46] = system: Pseudomonas aeruginosa Z61
[47] = system: Salmonella enterica subsp. enterica serovar Typhimurium ATCC 14028s

SMILES: CC[C@H](C)[C@H](NC(=O)[C@H](CCCCN)NC(=O)[C@H](CCCN=C(N)N)NC(=O)[C@H](CCCN=C(N)N)NC(=O)[C@@H]1CCCN1C(=O)[C@H](CC(C)C)NC(=O)[C@H](CC(C)C)NC(=O)[C@@H](NC(=O)[C@H](CCCN=C(N)N)NC(=O)[C@H](CCSC)NC(=O)[C@H](CCCN=C(N)N)NC(=O)[C@H](CC(C)C)NC(=O)[C@H](Cc1ccccc1)NC(=O)[C@H](CO)NC(=O)[C@H](CCCCN)NC(=O)[C@H](C)NC(=O)[C@H](CC(C)C)NC(=O)[C@H](CCCN=C(N)N)NC(=O)CNC(=O)[C@H](Cc1ccccc1)NC(=O)[C@H](CCCN=C(N)N)NC(=O)[C@@H](N)CCCCN)[C@@H](C)CC)C(=O)N[C@@H](CC(C)C)C(=O)N[C@@H](CC(C)C)C(=O)N[C@@H](C)C(=O)N[C@@H](CO)C(=O)O [KRFGRLAKSFLRMRILLPRRKILLAS]
MIC [4]: 1.27 µM (≈ 4 µg/mL)
MIC [5]: 1.1 µM (≈ 3.46 µg/mL)
MIC [6]: 1.91 µM and 0.637 µM
MIC [7]: 3.98 µM and 1.91 µM
MIC [8]: 0.9 µM (≈ 2.83 µg/mL)
MIC [9]: > 31.8 µM
MIC [10]: 3.98 µM and 1.91 µM
MIC [11]: 1.91 µM (≈ 6 µg/mL)
MIC [12]: 1.91 µM (≈ 6 µg/mL)
MIC [13]: > 10.2 µM
MIC [14]: 31.8 µM (≈ 100 µg/mL)
MIC [15]: 0.9 µM (≈ 2.83 µg/mL)
MIC [16]: 0.78 µM (≈ 2.45 µg/mL)
MIC [17]: 1.91 µM and 0.9 µM
MIC [18]: 7.96 µM (≈ 25 µg/mL)
MIC [19]: 31.8 µM (≈ 100 µg/mL)
MIC [20]: 7.96 µM (≈ 25 µg/mL)
MIC [21]: 1.91 µM and 3.98 µM
MIC [22]: 3.98 µM (≈ 12.5 µg/mL)
MIC [23]: 3.98 µM (≈ 12.5 µg/mL)
MIC [24]: 3.98 µM (≈ 12.5 µg/mL)
MIC [25]: 1.27 µM (≈ 4 µg/mL)
MIC [26]: 0.955 µM (≈ 3 µg/mL)

SMILES: CC(C)C[C@H](NC(=O)CN)C(=O)N[C@@H](Cc1ccccc1)C(=O)N[C@@H](CC(=O)O)C(=O)N[C@H](C(=O)N[C@H](C(=O)N[C@@H](CCCCN)C(=O)NCC(=O)N[C@H](C(=O)N[C@@H](CC(C)C)C(=O)N[C@@H](CCCCN)C(=O)NCC(=O)N[C@H](C(=O)NCC(=O)N[C@@H](CCCCN)C(=O)N[C@@H](CC(N)=O)C(=O)N[C@H](C(=O)N[C@@H](C)C(=O)NCC(=O)N[C@@H](CO)C(=O)N[C@@H](CC(C)C)C(=O)N[C@@H](CC(C)C)C(=O)N[C@@H](CCC(=O)O)C(=O)N[C@@H](CCC(N)=O)C(=O)N[C@@H](CC(C)C)C(=O)N[C@@H](CCCCN)C(=O)N[C@H]1CSSC[C@@H](C(=O)O)NC(=O)CNC(=O)CNC(=O)[C@H](CO)NC(=O)[C@H](CC(C)C)NC(=O)[C@H](CCCCN)NC1=O)C(C)C)C(C)C)C(C)C)C(C)C)C(C)C [GLFDVVKGVLKGVGKNVAGSLLEQLKCKLSGGC]
MIC [9]: 50 µM (≈ 166 µg/mL)
MIC [27]: 30.1 µM (≈ 99.9 µg/mL)
MIC [11]: 18.1 µM (≈ 60 µg/mL)
MIC [28]: 9.04 µM (≈ 30 µg/mL)
MIC [29]: ≥ 37.5 µM
MIC [30]: 18.1 µM (≈ 60 µg/mL)
MIC [31]: ≥ 100 µM
MIC [32]: 15.1 µM (≈ 50 µg/mL)
MIC [33]: 4.52 µM (≈ 15 µg/mL)
MIC [15]: > 100 µM
MIC [34]: 1.88 µM (≈ 6.25 µg/mL)
MIC [35]: ≥ 37.5 µM
MIC [36]: > 30.1 µM
MIC [37]: 4.52 µM (≈ 15 µg/mL)
MIC [38]: ≥ 37.5 µM
MIC [39]: 30.1 µM (≈ 99.9 µg/mL)

SMILES: CC[C@H](C)[C@H](NC(=O)[C@H](CC(C)C)NC(=O)[C@@H]1CCCN1C(=O)[C@H](CCCCN)NC(=O)[C@H](C)NC(=O)[C@@H](NC(=O)[C@@H](NC(=O)[C@@H](NC(=O)[C@@H](NC(=O)[C@H](CCCCN)NC(=O)[C@H](CCCCN)NC(=O)[C@H](CC(C)C)NC(=O)[C@@H](NC(=O)[C@H](CO)NC(=O)[C@@H](NC(=O)[C@H](CC(C)C)NC(=O)[C@H](CCCCN)NC(=O)[C@H](CCCCN)NC(=O)[C@@H](NC(=O)[C@H](Cc1ccccc1)NC(=O)[C@H](CO)NC(=O)[C@H](CCCCN)NC(=O)[C@H](Cc1c[nH]c2ccccc12)NC(=O)[C@@H](N)CCCCN)[C@@H](C)CC)[C@@H](C)O)C(C)C)C(C)C)C(C)C)[C@@H](C)O)[C@@H](C)O)C(=O)N[C@@H](CO)C(=O)N[C@@H](CO)C(=O)O [KWKSFIKKLTSVLKKVVTTAKPLISS]
MIC [40]: 21.8 µM (≈ 64 µg/mL)
MIC [41]: 2.73 µM (≈ 8 µg/mL)
MIC [42]: 1.71 µM (≈ 5 µg/mL)
MIC [43]: 1.36 µM (≈ 4 µg/mL)
MIC [44]: 0.682 µM (≈ 2 µg/mL)
MIC [23]: 4 µM (≈ 11.7 µg/mL)
MIC [45]: 2.73 µM (≈ 8 µg/mL)
MIC [46]: 1.02 µM (≈ 3 µg/mL)
MIC [47]: 1.02 µM (≈ 3 µg/mL)

Further lines, results first:

MIC [1]: ≥ 46 µM
MIC [2]: ≥ 46 µM
SMILES: CC(C)C[C@H](NC(=O)CNC(=O)[C@H](Cc1cnc[nH]1)NC(=O)[C@H](Cc1cnc[nH]1)NC(=O)[C@H](CC(C)C)NC(=O)[C@H](CC(C)C)NC(=O)[C@H](C)NC(=O)[C@H](CC(N)=O)NC(=O)[C@H](CC(C)C)NC(=O)[C@@H](N)Cc1c[nH]c2ccccc12)C(=O)N[C@@H](CC(N)=O)C(=O)N[C@@H](CS)C(N)=O [WLNALLHHGLNC]

MIC [3]: 1.2 µM (≈ 2 µg/mL)
SMILES: CC[C@H](C)[C@H](NC(=O)[C@H](CCCCN)NC(=O)[C@H](Cc1c[nH]c2ccccc12)NC(=O)[C@H](CCCN=C(N)N)NC(=O)[C@@H](N)CCCN=C(N)N)C(=O)N[C@H](C(=O)N[C@H](C(=O)N[C@H](C(=O)N[C@@H](CCCN=C(N)N)C(=O)N[C@@H](Cc1c[nH]c2ccccc12)C(=O)N[C@@H](CCCCN)C(=O)N[C@@H](CCCCN)C(N)=O)[C@@H](C)CC)C(C)C)C(C)C [RRWKIVVIRWKK]
